From patent US20210318318A1, “Kinase Activity In Tumors” (Institute For Cancer Research d/b/a The Research Institute …, priority 2018, published 2021)
“Also recorded” adds a separate entry of the source.

How the values were obtained:
[1] = biological target: T1, MRCKB (Homo sapiens, UniProt Q9Y5S2); experiment: MIB/MS kinome profiling of inhibitor-treated OVSAHO cells; type: cell-based; conditions: 2 μM, 4 hour treatment
T1 construct: endogenous in cells; host or cells: OVSAHO
Method: (§1) OVSAHO cells were treated with inhibitors at a dose of 2 μM for 4 hours and kinase inhibition profiles determined by MIB/MS. Bar graph depicts % of kinase bound to MIBs relative to DMSO control as determined by label free quantitation.
(§2) OVSAHO cells were treated with 2 μM of inhibitor for 4 hours and analyzed by MIB/MS. Scatterplot depicts difference in kinase MIB-binding of drug treated relative to control DMSO as determined by Students T-test.
(§3) MIB-based kinome profiling was performed on several of these molecules in HGSOC cells to determine kinome-wide inhibition profiles.
(§4) Experiments using MIB/MS were performed as previously described (Duncan et al., Cell, 2012, 149, 307-321; and Kurimchak et al., Cell Reports, 2016, 16, 1273-1286). Briefly, cells or tumors were lysed on ice in buffer containing 50 mM HEPES (pH 7.5), 0.5% Triton X-100, 150 mM NaCl, 1 mM EDTA, 1 mM EGTA, 10 mM sodium fluoride, 2.5 mM sodium orthovanadate, 1× protease inhibitor cocktail (Roche), and 1% each of phosphatase inhibitor cocktails 2 and 3 (Sigma). Particulate was removed by centrifugation of lysates at 13,000 rpm for 10 minutes at 4° C. and filtration through 0.2 μm syringe filters. Protein concentrations were determined by BCA analysis (Thermo). To compare kinome signatures within and across such large sample sizes, a super-SILAC method was designed (Neubert et al., Nat. Meth., 2010, 7, 361-362) consisting of a cocktail of cancer cell lines that encompasses the activity of the “cancer kinome” to be used as a control for individual samples. Five cancer cell lines were selected from the NCI-60 panel (UACC257, MOLT4, COL0205, ACHN and PC3) that differed in their origin, gene expression patterns and mutation status. The cancer cell lines were labeled using SILAC and mixed equally providing a diverse SILAC ([^13C6,^15N4] arginine (Arg^10) and […] (Lys^8)) heavy kinome reference standard (HKS) to be used repeatedly in kinome profiling assays. An equal amount of the HKS was added to the non-labeled sample (cell, tumor or normal tissue) providing a quantitative strategy to compare kinome activity/levels across samples, amongst treatments and, importantly, across time. […]
(§5) Proteolytic peptides were resuspended in 0.1% formic acid and separated with a Thermo RSLC Ultimate 3000 on a Thermo Easy-Spray C18 PepMap 75 μm×50 cm C-18 2 μm column with a 240 minute gradient of 4-25% acetonitrile with 0.1% formic acid at 300 nL/min and 50° C. Eluted peptides were analyzed by a Thermo Q Exactive plus mass spectrometer utilizing a top 15 methodology in which the 15 most intense peptide precursor ions were subjected to fragmentation.

[2] = biological target: T2, MRCKA (Homo sapiens, UniProt Q5VT25); experiment: as above; type: cell-based; parameters: endogenous in cells; host or cells: OVSAHO; conditions: 2 μM, 4 hour treatment
T2 sequence (Q5VT25 whole entry): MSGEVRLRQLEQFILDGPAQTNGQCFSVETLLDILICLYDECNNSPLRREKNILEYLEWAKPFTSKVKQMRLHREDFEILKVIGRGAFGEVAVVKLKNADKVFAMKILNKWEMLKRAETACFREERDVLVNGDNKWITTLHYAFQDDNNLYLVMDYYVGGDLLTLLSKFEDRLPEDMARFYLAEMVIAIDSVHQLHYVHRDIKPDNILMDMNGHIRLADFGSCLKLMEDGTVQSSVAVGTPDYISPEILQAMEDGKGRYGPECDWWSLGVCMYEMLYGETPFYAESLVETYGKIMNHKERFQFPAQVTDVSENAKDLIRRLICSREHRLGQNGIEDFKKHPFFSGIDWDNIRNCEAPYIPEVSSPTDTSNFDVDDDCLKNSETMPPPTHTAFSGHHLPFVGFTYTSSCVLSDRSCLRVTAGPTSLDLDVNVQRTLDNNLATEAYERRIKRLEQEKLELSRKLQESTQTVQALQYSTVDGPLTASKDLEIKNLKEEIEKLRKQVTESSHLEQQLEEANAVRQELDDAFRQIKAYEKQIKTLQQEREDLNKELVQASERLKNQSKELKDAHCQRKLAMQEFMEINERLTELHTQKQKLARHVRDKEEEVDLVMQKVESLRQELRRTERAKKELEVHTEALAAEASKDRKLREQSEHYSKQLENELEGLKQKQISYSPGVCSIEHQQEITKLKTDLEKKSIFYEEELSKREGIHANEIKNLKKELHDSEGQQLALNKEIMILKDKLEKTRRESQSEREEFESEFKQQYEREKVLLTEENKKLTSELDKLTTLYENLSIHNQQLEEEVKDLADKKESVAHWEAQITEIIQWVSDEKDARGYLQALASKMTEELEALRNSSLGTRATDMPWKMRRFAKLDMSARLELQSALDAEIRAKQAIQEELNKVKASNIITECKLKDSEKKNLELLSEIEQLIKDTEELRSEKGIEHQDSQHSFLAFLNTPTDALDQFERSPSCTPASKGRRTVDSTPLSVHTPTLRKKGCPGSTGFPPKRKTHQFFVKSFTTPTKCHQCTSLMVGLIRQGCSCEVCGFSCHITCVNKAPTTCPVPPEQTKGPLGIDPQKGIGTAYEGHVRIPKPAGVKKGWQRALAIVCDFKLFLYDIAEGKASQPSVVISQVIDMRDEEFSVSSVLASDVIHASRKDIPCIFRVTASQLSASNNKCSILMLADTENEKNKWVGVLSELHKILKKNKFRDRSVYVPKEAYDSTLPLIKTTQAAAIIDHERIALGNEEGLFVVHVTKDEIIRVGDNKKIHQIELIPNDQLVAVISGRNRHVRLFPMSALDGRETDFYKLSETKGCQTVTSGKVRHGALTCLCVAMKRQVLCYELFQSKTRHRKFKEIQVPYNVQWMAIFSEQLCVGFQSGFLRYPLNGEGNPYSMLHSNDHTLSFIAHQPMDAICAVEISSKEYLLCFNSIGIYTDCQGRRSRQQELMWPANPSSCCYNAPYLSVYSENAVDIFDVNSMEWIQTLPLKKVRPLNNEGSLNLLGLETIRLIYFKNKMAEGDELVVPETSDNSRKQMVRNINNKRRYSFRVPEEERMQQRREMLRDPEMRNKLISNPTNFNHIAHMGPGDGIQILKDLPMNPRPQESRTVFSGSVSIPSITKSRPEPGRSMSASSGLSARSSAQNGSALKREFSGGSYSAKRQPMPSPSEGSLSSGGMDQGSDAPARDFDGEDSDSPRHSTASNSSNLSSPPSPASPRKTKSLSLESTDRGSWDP
Method: as §1, §2, §3, §4, §5

[3] = system: FAK1, MLC and Paxillin phosphorylation; FAK1 and CHEK1 protein levels; experiment: Western blot of signaling in inhibitor-treated HGSOC cells; type: cell-based, human; conditions: 48 hours; for FAK1, MLC and Paxillin phosphorylation: HGSOC (COV362) cells, increasing doses 0.5, 1 or 3 μM
Method: COV362 cells were treated with 0.5, 1 or 3 μM of A-674563 or SB-772077 for 48 hours and signaling monitored by western blot.
Samples were harvested in MIB lysis buffer, subjected to SDS-PAGE […] and transferred to PVDF membranes before western blotting with primary antibodies. For pMYPT and pMLC blots, cells were harvested in a buffer containing 1% (w/v) SDS, 50 mM Tris pH 7.5 supplemented with protease and phosphatase inhibitors buffer and were passed through QIAshredder columns (Qiagen, 79654), (Unbekandt et al., Cell Commun. Signal., 2014, 12, 54). For the list of primary antibodies used, see Table 4. Secondary HRP-anti-rabbit and HRP-anti-mouse were obtained from ThermoFisher Scientific. SuperSignal West Pico and Femto Chemiluminescent Substrates (Thermo) were used to visualize blots.

[4] = biological target: T3, ROCK2 (Homo sapiens, UniProt O75116); experiment: MIB/MS kinome profiling of inhibitor-treated OVSAHO cells; type: cell-based; conditions: 2 μM, 4 hours
T3 construct: endogenous in cells; host or cells: OVSAHO
Method: as §2, §3
Experiments using MIB/MS were performed as previously described (Duncan et al., Cell, 2012, 149, 307-321; and Kurimchak et al., Cell Reports, 2016, 16, 1273-1286). Briefly, cells or tumors were lysed on ice in buffer containing 50 mM HEPES (pH 7.5), 0.5% Triton X-100, 150 mM NaCl, 1 mM EDTA, 1 mM EGTA, 10 mM sodium fluoride, 2.5 mM sodium orthovanadate, 1× protease inhibitor cocktail (Roche), and 1% each of phosphatase inhibitor cocktails 2 and 3 (Sigma). Particulate was removed by centrifugation of lysates at 13,000 rpm for 10 minutes at 4° C. and filtration through 0.2 μm syringe filters. Protein concentrations were determined by BCA analysis (Thermo). To compare kinome signatures within and across such large sample sizes, a super-SILAC method was designed (Neubert et al., Nat. Meth., 2010, 7, 361-362) consisting of a cocktail of cancer cell lines that encompasses the activity of the “cancer kinome” to be used as a control for individual samples. […] An equal amount of the HKS was added to the non-labeled sample (cell, tumor or normal tissue) providing a quantitative strategy to compare kinome activity/levels across samples, amongst treatments and, importantly, across time. […]
as §5

[5] = biological target: T4, ROCK1 (Homo sapiens, UniProt Q13464); experiment: as above; type: cell-based; conditions: 2 μM, 4 hours
T4 construct: endogenous in cells; host or cells: OVSAHO
T4 sequence (Q13464 whole entry): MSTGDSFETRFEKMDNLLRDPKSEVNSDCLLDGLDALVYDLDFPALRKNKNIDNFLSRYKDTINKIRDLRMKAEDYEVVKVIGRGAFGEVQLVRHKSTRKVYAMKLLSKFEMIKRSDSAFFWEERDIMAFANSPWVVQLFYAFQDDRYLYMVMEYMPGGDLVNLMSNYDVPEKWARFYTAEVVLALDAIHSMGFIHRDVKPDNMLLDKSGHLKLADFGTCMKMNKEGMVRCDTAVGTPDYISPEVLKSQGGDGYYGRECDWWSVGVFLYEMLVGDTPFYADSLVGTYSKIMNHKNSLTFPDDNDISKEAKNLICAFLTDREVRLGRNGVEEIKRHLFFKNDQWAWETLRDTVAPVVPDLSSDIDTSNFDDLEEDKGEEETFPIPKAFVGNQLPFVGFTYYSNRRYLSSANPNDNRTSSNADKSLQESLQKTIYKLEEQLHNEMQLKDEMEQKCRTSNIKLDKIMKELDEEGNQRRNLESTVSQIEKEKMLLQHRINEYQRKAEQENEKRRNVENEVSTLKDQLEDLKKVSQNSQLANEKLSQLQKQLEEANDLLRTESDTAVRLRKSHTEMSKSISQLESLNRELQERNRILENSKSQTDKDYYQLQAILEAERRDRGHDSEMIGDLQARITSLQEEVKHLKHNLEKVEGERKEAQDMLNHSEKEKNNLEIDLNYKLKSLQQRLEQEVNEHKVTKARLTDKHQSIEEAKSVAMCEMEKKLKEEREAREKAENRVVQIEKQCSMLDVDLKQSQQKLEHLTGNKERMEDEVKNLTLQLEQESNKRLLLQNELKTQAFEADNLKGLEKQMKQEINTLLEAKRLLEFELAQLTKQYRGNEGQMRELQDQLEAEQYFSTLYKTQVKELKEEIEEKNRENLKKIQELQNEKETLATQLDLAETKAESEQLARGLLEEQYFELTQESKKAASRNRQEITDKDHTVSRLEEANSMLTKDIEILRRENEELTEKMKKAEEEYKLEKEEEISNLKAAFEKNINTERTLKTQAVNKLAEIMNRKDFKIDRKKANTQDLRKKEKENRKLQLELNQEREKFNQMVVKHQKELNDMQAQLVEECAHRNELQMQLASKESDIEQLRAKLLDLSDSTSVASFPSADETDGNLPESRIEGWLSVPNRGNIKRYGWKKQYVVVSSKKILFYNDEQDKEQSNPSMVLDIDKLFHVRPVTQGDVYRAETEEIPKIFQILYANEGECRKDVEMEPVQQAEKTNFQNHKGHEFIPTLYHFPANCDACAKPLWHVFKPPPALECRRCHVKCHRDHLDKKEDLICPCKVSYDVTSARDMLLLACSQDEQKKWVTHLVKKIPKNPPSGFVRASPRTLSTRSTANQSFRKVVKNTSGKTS
Method: as §2
Scatter plot depicts statistical differences in MIB-binding as a ratio of inhibitor/DMSO. Cells were treated with inhibitors at a dose of 2 μM and subjected to MIB/MS. Changes in MIB-binding were quantified using label free quantitation. Data presented in (A) are triplicate experiments SEM. *p≤0.05 by student's t-test.
as §3
Experiments using MIB/MS were performed as previously described (Duncan et al., Cell, 2012, 149, 307-321; and Kurimchak et al., Cell Reports, 2016, 16, 1273-1286). […] Protein concentrations were determined by BCA analysis (Thermo). […] An equal amount of the HKS was added to the non-labeled sample (cell, tumor or normal tissue) providing a quantitative strategy to compare kinome activity/levels across samples, amongst treatments and, importantly, across time. […]

[6] = system: HGSOC cells; experiment: Cell viability of HGSOC cell line panel (Cell Titer Glo); type: cell-based, human
Method: Cells were treated with increasing concentrations of PF-03758309 and cell viability assessed by Cell Titer Glo according to manufacturer's instructions. Data represent the mean of six replicates.
Cell viability was assessed by Cell Titer Glo according to manufacturing. Data represent the mean of six replicates.
For short-term growth assays, 3000-5000 cells were plated per well in 96-well plates and allowed to adhere and equilibrate overnight. Drug was added the following morning and after 120 hours of drug treatment, cell viability was assessed using the CellTiter-Glo Luminescent cell viability assay according to manufacturer (Promega). Students t tests were performed for statistical analyses and p values ≤0.05 were considered significant. For colony formation assays, cells were plated in 24-well dishes (3000-5000 cells per well) and incubated overnight before continuous drug treatment for 14 days, with drug and media replaced twice weekly. At the end of treatment, cells were rinsed with PBS and fixed with chilled methanol for 10 minutes at −20° C. Methanol was removed by aspiration, and cells were stained with 0.5% crystal violet in 20% methanol for 20 minutes at room temperature, washed with distilled water, and scanned.

[7] = biological target: T5, AURKB (Homo sapiens, UniProt Q96GD4); experiment: BDP5290 target profiling (in vitro kinase assays, MIB/MS and MIB-bead selectivity profiling); type: binding
T5 construct: endogenous in cells; host or cells: OVCAR4 cells; OVSAHO and KURAMOCHI lysates
T5 sequence (Q96GD4 whole entry): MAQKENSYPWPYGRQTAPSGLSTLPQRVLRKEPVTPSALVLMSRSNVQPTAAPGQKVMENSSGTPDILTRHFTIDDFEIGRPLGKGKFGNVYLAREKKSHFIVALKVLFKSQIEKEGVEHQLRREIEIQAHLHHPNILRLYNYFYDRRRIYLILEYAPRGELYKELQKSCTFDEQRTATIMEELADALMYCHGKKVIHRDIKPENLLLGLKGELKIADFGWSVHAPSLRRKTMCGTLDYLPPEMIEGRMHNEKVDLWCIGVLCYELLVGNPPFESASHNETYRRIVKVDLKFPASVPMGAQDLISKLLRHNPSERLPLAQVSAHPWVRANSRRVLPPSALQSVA
Method: (§6) Statistical kinases are identified using Students T-tests with FDR 0.05.
(§7) MIB-elutions were then analyzed by western blot.
(§8) Kinome elutions were then analyzed using LC-MS/MS and changes in kinase binding quantified using label free quantitation.
(§9) Lysates were then incubated with MIBs for 45 minutes at 4° C. (Medard et al., J. Proteome Res., 2015, 14, 1574-1586) and added to gravity flow columns. The MIB preparation protocol was subsequently followed excluding the reduction and alkylation steps. Following methanol/chloroform precipitation, the precipitated pellet was resuspended in 20 μL complete MIBs lysis buffer and 4 μL 6×LSB was added to each sample. Samples were boiled at 100° C. for 5 minutes and subjected to western blot analysis. For the selectivity assay analyzed via LC-MS/MS, 5 mg OVSAHO lysates were preincubated with the same drug concentrations and incubated with MIBs, and the MIB preparation protocol was followed.

[8] = biological target: T2, MRCKA; experiment: BDP5290 target profiling (in vitro kinase assays, MIB/MS proteomic analysis of drug binders); type: binding; parameters: endogenous in cells; host or cells: OVSAHO; conditions: doses <5 μM
Method: PCA plot of MIB-determined SILAC ratios.
as §6, §9

[9] = biological target: T2, MRCKA; conditions: Unbekandt et al., 2014; cited from earlier work
[10] = biological target: T1, MRCKB; experiment: BDP5290 target profiling (in vitro kinase assays, MIB/MS and MIB-bead selectivity profiling); type: binding
Method: as §7, §8, §9

[11] = system: carboplatin-resistant COV362 cells; experiment: Carboplatin response in cells depleted of MRCKA by siRNA; type: cell-based, human
Method: (§10) Cells transfected with control or MRKCA siRNAs were treated with increasing doses of carboplatin. Cell viability was assessed by Cell Titer Glo according to manufacturer's instructions. Data represent the mean of six replicates. GR50 were determined using PRISM.
(§11) To explore if blocking dark kinases AAK1, STK38 or MRCKA activity in combination with current therapies improves drug efficacy, OVCAR4 cells depleted of AAK1, STK38 or MRCKA were treated with increasing doses of carboplatin, olaparib, JQ1, or a variety of kinase inhibitors in clinical trials for HGSOC.
siRNA transfections were performed using 25 nM siRNA duplex and the reverse transfection protocol. 3000-5000 cells per well were added to 96 well plates with media containing the siRNA and transfection reagent (Lipofectamine RNAiMax) according to the manufacturer's instructions. In experiments where inhibitors were used, the inhibitor was added at the time of transfection. Cells were allowed to grow for 72-120 hours post-transfection prior to CellTiter Glo (Promega) analysis. Two-to-three independent experiments were performed with each cell line and siRNA. Students t tests were performed for statistical analyses and p values ≤0.05 were considered significant. […]

[12] = system: OVCAR4 cells; experiment: Drug growth inhibition in cells depleted of dark kinases by siRNA (Cell Titer Glo); type: cell-based, human; conditions: increasing doses of drug
Method: OVCAR4 cells were transfected with control nontargeting or dark kinase siRNAs and treated with escalating doses of appropriate drugs.
as §11
(§12) siRNA transfections were performed using 25 nM siRNA duplex and the reverse transfection protocol. 3000-5000 cells per well were added to 96 well plates with media containing the siRNA and transfection reagent (Lipofectamine RNAiMax) according to the manufacturer's instructions. In experiments where inhibitors were used, the inhibitor was added at the time of transfection. Cells were allowed to grow for 72-120 hours post-transfection prior to CellTiter Glo (Promega) analysis. Two-to-three independent experiments were performed with each cell line and siRNA. Students t tests were performed for statistical analyses and p values ≤0.05 were considered significant. For western blot studies, the same procedure was performed with volumes and cell numbers proportionally scaled to a 60 mm or 10 cm dish, and cells were collected 24-72 hours post-transfection. siRNA product numbers and manufacturers are listed in Table 5.

[13] = system: HGSOC cells; experiment: Drug response in cells depleted of MRCKA by siRNA (Cell Titer Glo, cleaved PARP blots); type: cell-based, human
Method: as §10
Cells transfected with control or MRKCA siRNAs were treated with increasing doses of olaparib. Cell viability was assessed by Cell Titer Glo according to manufacturer's instructions. Data represent the mean of six replicates. GR50 were determined using PRISM.
as §11, §12

[14] = cell lysates incubated with increasing doses for 30 minutes

T1 sequence (Q9Y5S2 whole entry): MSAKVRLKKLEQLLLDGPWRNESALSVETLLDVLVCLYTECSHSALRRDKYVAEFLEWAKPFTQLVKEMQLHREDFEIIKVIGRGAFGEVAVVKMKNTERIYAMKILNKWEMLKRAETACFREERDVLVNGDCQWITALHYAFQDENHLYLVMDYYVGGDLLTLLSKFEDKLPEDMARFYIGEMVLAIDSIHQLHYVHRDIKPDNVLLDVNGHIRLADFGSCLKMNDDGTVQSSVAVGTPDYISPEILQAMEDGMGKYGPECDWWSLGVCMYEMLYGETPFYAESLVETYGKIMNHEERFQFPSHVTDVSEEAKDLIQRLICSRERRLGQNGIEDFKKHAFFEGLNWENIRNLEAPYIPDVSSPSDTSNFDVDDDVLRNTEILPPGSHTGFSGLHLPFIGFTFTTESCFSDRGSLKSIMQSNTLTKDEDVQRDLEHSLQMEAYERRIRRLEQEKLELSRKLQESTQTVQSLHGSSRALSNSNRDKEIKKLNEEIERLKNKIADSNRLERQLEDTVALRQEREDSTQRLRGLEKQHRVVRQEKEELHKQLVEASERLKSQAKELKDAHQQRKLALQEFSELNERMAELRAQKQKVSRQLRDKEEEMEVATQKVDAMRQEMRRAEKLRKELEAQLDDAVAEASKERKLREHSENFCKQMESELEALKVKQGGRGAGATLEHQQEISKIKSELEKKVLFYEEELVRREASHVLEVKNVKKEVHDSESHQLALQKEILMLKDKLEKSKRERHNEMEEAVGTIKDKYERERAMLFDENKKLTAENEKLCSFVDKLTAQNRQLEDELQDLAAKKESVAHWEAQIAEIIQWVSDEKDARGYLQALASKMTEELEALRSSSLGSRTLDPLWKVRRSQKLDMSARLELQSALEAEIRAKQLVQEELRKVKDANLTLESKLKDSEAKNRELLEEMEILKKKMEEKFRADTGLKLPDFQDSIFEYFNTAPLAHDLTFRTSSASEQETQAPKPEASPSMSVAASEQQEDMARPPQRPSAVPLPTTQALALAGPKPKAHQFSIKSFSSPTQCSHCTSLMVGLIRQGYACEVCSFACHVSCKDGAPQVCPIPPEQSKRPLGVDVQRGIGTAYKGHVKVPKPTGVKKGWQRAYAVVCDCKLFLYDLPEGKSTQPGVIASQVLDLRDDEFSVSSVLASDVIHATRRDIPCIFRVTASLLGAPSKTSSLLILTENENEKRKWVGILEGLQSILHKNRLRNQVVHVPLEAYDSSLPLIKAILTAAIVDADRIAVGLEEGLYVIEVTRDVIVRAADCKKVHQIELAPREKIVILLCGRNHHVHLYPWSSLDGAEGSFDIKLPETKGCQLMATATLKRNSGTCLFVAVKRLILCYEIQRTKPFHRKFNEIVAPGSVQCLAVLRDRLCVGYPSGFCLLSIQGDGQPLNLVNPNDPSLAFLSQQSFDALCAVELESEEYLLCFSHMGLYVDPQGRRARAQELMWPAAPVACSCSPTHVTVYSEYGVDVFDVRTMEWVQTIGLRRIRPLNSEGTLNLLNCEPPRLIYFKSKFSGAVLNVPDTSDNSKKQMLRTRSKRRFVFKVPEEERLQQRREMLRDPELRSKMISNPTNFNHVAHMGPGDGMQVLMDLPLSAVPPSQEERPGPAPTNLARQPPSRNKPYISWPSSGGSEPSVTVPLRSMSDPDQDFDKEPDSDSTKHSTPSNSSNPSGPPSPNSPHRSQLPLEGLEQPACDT

SMILES: CC1=C(C(=O)Nc2cc(Cl)c3[nH]ncc3c2)C(c2ccc(C(F)(F)F)cc2)CC(=O)N1 (centres unmarked) [GSK466317A]
- MIB-binding of MRCKB relative to DMSO [1]: Reduced MIB-binding
- MIB-binding of MRCKA relative to DMSO [2]: Reduced MIB-binding
- FAK1, MLC and Paxillin phosphorylation [3]: reduced
- MIB-binding of ROCK2 [4]: reduction in MIB-binding
- MIB-binding of ROCK1 [5]: reduction in MIB-binding

SMILES: O=C(NCc1cccc(O)c1)Nc1nc(-c2ccncc2)cs1 [RKI-1447]
- FAK1, MLC and Paxillin phosphorylation [3]: reduced
- MIB-binding of ROCK1 [5]: reduction in MIB-binding

SMILES: O=C(Nc1cn[nH]c1-c1ccccn1)c1nn(C2CCNCC2)cc1Cl [BDP5290]
- potency in HGSOC cells ([6]; doses <5 μM): minimal potency
- cell viability of HGSOC cells ([6]; increasing concentrations, Cell Titer Glo): inhibiting HGSOC cell viability at higher concentrations; also recorded: minimal effects
- elution of AURKB from MIB beads (western blot) [7, 14]: elute AURKB
- off-target activity on AURKB in HGSOC cells ([7]; doses <5 μM): off-targets
- activity against primary target MRCKA in HGSOC cells [8]: little activity
- pMLC, pMYPT1, pFAK or total FAK1 or CHEK1 levels ([3]; HGSOC cells, 0.5, 1 or 3 μM): did not reduce
- Ki [9]: 10 nM
- elution of MRCKB from MIB beads (western blot) [10, 14]: not MRCKB
- activity against primary target MRCKB in HGSOC cells ([10]; doses <5 μM): little activity

SMILES: N.N.O=C([O-])C1(C(=O)[O-])CCC1.[Pt+2] [carboplatin]
- cell growth and apoptosis, MRCKA knockdown in combination with drug [11]: inhibited cell growth and induced apoptosis
- growth inhibition by drug with MRCKA knockdown relative to non-targeting control siRNA [12]: enhanced growth inhibition
- apoptosis (cleaved PARP) of drug plus MRCKA depletion ([13]; HGSOC cell lines): induced apoptosis better than individual therapies
- effect of drug on cell viability with MRCKA depletion ([13]; additional HGSOC cell lines, increasing doses): enhanced the effect of carboplatin
